Experimental data: the NIST ThermoML archive (doi:10.1016/j.jct.2014.02.024)

Assay: mn = molality of the nth substance listed, in mol/kg
Settings: 101.3 kPa, Liquid; for viscosity: Capillary tube (Ostwald / Ubbelohde) method; for mass density: Pycnometric method

O=C(O)c1cccnc1 [3-carboxylpyridine] + O
Settings	mass density [kg/m3]	viscosity [mPa·s]
275.15 K, m1 = 0.0098	1000.41	1.675
275.15 K, m1 = 0.0199	1000.84	1.685
275.15 K, m1 = 0.023	1000.96	1.687
275.15 K, m1 = 0.0249	1001.1	1.687
275.15 K, m1 = 0.0299	1001.29	1.691
275.15 K, m1 = 0.0349	1001.51	1.686
275.15 K, m1 = 0.0402	1001.76	1.691
275.15 K, m1 = 0.0429	1001.91	1.693
275.15 K, m1 = 0.0453	1002.02	1.694
275.15 K, m1 = 0.0497	1002.2	1.69
275.15 K, m1 = 0.055	1002.46	1.7
275.15 K, m1 = 0.06	1002.7	1.702
275.15 K, m1 = 0.0646	1002.87	1.704
275.15 K, m1 = 0.0701	1003.17	1.706
275.15 K, m1 = 0.0801	1003.54	1.715
277.15 K, m1 = 0.0094	1000.39	1.572
277.15 K, m1 = 0.0201	1000.87	1.574
277.15 K, m1 = 0.0231	1000.98	1.574
277.15 K, m1 = 0.025	1001.1	1.576
277.15 K, m1 = 0.0296	1001.29	1.577
277.15 K, m1 = 0.0399	1001.69	1.58
277.15 K, m1 = 0.043	1001.86	1.582
277.15 K, m1 = 0.0451	1001.97	1.583
277.15 K, m1 = 0.0499	1002.23	1.586
277.15 K, m1 = 0.055	1002.34	1.586
277.15 K, m1 = 0.06	1002.64	1.587
277.15 K, m1 = 0.0631	1002.69	1.591
277.15 K, m1 = 0.065	1002.84	1.591
277.15 K, m1 = 0.0705	1003.13	1.592
279.15 K, m1 = 0.0103	1000.39	1.474
279.15 K, m1 = 0.0198	1000.79	1.479
279.15 K, m1 = 0.0229	1000.95	1.485
279.15 K, m1 = 0.03	1001.23	1.489
279.15 K, m1 = 0.0351	1001.46	1.49
279.15 K, m1 = 0.04	1001.74	1.495
279.15 K, m1 = 0.0431	1001.79	1.494
279.15 K, m1 = 0.0454	1001.94	1.496
279.15 K, m1 = 0.0501	1002.16	1.499
279.15 K, m1 = 0.0551	1002.39	1.503
279.15 K, m1 = 0.06	1002.54	1.5
279.15 K, m1 = 0.0631	1002.68	1.502
279.15 K, m1 = 0.065	1002.79	1.503
279.15 K, m1 = 0.0701	1003.04	1.509

NC(=O)c1cccnc1 [3-pyridinecarboxamide] + O
Settings	mass density [kg/m3]	viscosity [mPa·s]
275.15 K, m1 = 0.0101	1000.22	1.683
275.15 K, m1 = 0.0201	1000.53	1.687
275.15 K, m1 = 0.03	1000.83	1.691
275.15 K, m1 = 0.035	1001.02	1.697
275.15 K, m1 = 0.0401	1001.11	1.703
275.15 K, m1 = 0.0452	1001.26	1.707
275.15 K, m1 = 0.0502	1001.51	1.71
275.15 K, m1 = 0.0598	1001.74	1.711
275.15 K, m1 = 0.0651	1001.85	1.714
275.15 K, m1 = 0.07	1002.13	1.718
275.15 K, m1 = 0.0749	1002.21	1.724
275.15 K, m1 = 0.08	1002.41	1.721
275.15 K, m1 = 0.0852	1002.57	1.724
275.15 K, m1 = 0.1004	1002.93	1.73
277.15 K, m1 = 0.01	1000.25	1.578
277.15 K, m1 = 0.0202	1000.54	1.583
277.15 K, m1 = 0.03	1000.97	1.588
277.15 K, m1 = 0.0348	1000.98	1.59
277.15 K, m1 = 0.045	1001.27	1.595
277.15 K, m1 = 0.05	1001.42	1.598
277.15 K, m1 = 0.0601	1001.66	1.603
277.15 K, m1 = 0.0652	1001.86	1.605
277.15 K, m1 = 0.0691	1002	1.607
277.15 K, m1 = 0.075	1002.19	1.61
277.15 K, m1 = 0.0801	1002.29	1.612
277.15 K, m1 = 0.0849	1002.44	1.615
279.15 K, m1 = 0.02	1000.51	1.481
279.15 K, m1 = 0.0302	1000.82	1.482
279.15 K, m1 = 0.0347	1000.97	1.485
279.15 K, m1 = 0.0348	1000.92	1.485
279.15 K, m1 = 0.04	1001.13	1.487
279.15 K, m1 = 0.0451	1001.28	1.488
279.15 K, m1 = 0.05	1001.45	1.493
279.15 K, m1 = 0.0598	1001.7	1.495
279.15 K, m1 = 0.0699	1001.95	1.5
279.15 K, m1 = 0.0749	1002.04	1.504
279.15 K, m1 = 0.0799	1002.19	1.507
279.15 K, m1 = 0.0849	1002.36	1.51
279.15 K, m1 = 0.0897	1002.44	1.513
279.15 K, m1 = 0.1004	1002.78	1.52
